Assay results taken from patent publication US20170000133A1, “BENZOXABOROLE FUNGICIDES” (SYNGENTA PARTICIPATIONS AG, priority 2013, published 2017).

Tested on: Pythium ultimum
Experiment: Pythium ultimum / liquid culture (seedling damping off)
Type: cell-based
Conditions: Globisporangium ultimum, read-out: disease control (inhibition of growth determined photometrically)

| SMILES | inhibition at 200 ppm [%] |
| --- | --- |
| COP(=O)(CCOC(=O)c1cc2c(cc1Cl)COB2O)OC [Compound 228] | ≥ 80 |
| COP(=O)(CCOC(=O)c1cc2c(cc1F)COB2O)OC [Compound 416] | ≥ 80 |

Same assay, conditions: Globisporangium ultimum; 200 ppm; potato dextrose broth, 24° C., 2-3 days after application; read-out: disease control (inhibition of growth determined photometrically)

| SMILES | inhibition at 200 ppm [%] |
| --- | --- |
| O=C(NCc1ccccn1)c1ccc2c(c1)B(O)OC2 [Compound 52] | ≥ 80 |
| O=C(NCCC(F)(F)F)c1cc2c(cc1Cl)COB2O [Compound 54] | ≥ 80 |
| O=C(NC1CCSC1=O)c1cc2c(cc1Cl)COB2O (stereo not shown) [Compound 55] | ≥ 80 |
| O=C(NCCc1ccc2c(c1)OCO2)c1cc2c(cc1Cl)COB2O [Compound 58] | ≥ 80 |
| C#CC1(NC(=O)c2cc3c(cc2Cl)COB3O)CCCCC1 [Compound 62] | ≥ 80 |
| O=C(NCC1CCCO1)c1cc2c(cc1Cl)COB2O (stereo not shown) [Compound 64] | ≥ 80 |
| O=C(NCCCCl)c1cc2c(cc1F)COB2O [Compound 70] | ≥ 80 |
| O=C(NCc1ccccc1)c1cc2c(cc1Cl)COB2O [Compound 71] | ≥ 80 |
| O=C(NCCC(F)(F)F)c1cc2c(cc1F)COB2O [Compound 72] | ≥ 80 |
| O=C(NCC1(O)CCCCC1)c1cc2c(cc1F)COB2O [Compound 74] | ≥ 80 |
| CC(NC(=O)c1cc2c(cc1Cl)COB2O)c1ccccc1 (stereo not shown) [Compound 75] | ≥ 80 |
| O=C(NC1CCSC1=O)c1cc2c(cc1F)COB2O (stereo not shown) [Compound 76] | ≥ 80 |
| O=C(NCCc1cccs1)c1cc2c(cc1Cl)COB2O [Compound 81] | ≥ 80 |
| O=C(NCCc1ccc2c(c1)OCO2)c1cc2c(cc1F)COB2O [Compound 82] | ≥ 80 |
| O=C(NCCOc1ccccc1)c1cc2c(cc1Cl)COB2O [Compound 83] | ≥ 80 |
| CS(=O)(=O)c1ccc(CNC(=O)c2cc3c(cc2F)COB3O)cc1 [Compound 86] | ≥ 80 |
| COc1ccc(CNC(=O)c2cc3c(cc2Cl)COB3O)cc1 [Compound 91] | ≥ 80 |
| O=C(NCCC1OCCO1)c1cc2c(cc1F)COB2O [Compound 92] | ≥ 80 |
| O=C(NCc1ccc(-n2cccn2)cc1)c1cc2c(cc1Cl)COB2O [Compound 93] | ≥ 80 |
| CSCCNC(=O)c1cc2c(cc1Cl)COB2O [Compound 101] | ≥ 80 |
| O=C(NCc1ccc(Cl)nc1)c1cc2c(cc1Cl)COB2O [Compound 105] | ≥ 80 |
| O=C(Nc1ccccc1Cl)c1cc2c(cc1Cl)COB2O [Compound 108] | ≥ 80 |

| SMILES | inhibition at 200 ppm [%] |
| --- | --- |
| O=C(NCCc1ccccc1)c1cc2c(cc1F)COB2O [Compound 111] | ≥ 80 |
| O=C(NCCc1cccs1)c1cc2c(cc1F)COB2O [Compound 115] | ≥ 80 |
| O=C(NCCOc1ccccc1)c1cc2c(cc1F)COB2O [Compound 117] | ≥ 80 |
| COc1ccc(NC(=O)c2cc3c(cc2Cl)COB3O)c(OC)c1 [Compound 118] | ≥ 80 |
| O=C(Nc1cccc(F)c1)c1cc2c(cc1Cl)COB2O [Compound 120] | ≥ 80 |
| O=C(NCc1ccc(-n2cccn2)cc1)c1cc2c(cc1F)COB2O [Compound 126] | ≥ 80 |
| O=C(NCCc1c[nH]c2ccccc12)c1cc2c(cc1F)COB2O [Compound 130] | ≥ 80 |
| CSCCNC(=O)c1cc2c(cc1F)COB2O [Compound 134] | ≥ 80 |
| O=C(Nc1ccccc1-c1cc2ccccc2[nH]1)c1cc2c(cc1Cl)COB2O [Compound 135] | ≥ 80 |
| CSc1nc(NC(=O)c2cc3c(cc2Cl)COB3O)n[nH]1 [Compound 149] | ≥ 80 |
| Cc1cccnc1NC(=O)c1cc2c(cc1Cl)COB2O [Compound 151] | ≥ 80 |
| O=C(Nc1cccc2ncccc12)c1cc2c(cc1F)COB2O [Compound 152] | ≥ 80 |
| Cc1cc(O)nc(NC(=O)c2cc3c(cc2Cl)COB3O)n1 [Compound 153] | ≥ 80 |
| Cc1onc(-c2ccccc2)c1NC(=O)c1cc2c(cc1Cl)COB2O [Compound 156] | ≥ 80 |
| O=C(Nc1ccc(-n2cccc2)cc1)c1cc2c(cc1F)COB2O [Compound 159] | ≥ 80 |
| O=C(Nc1cc(-c2ccccc2)[nH]n1)c1cc2c(cc1Cl)COB2O [Compound 160] | ≥ 80 |
| Cc1nnc(NC(=O)c2cc3c(cc2Cl)COB3O)s1 [Compound 164] | ≥ 80 |
| O=C(Nc1ccc2ncsc2c1)c1cc2c(cc1F)COB2O [Compound 166] | ≥ 80 |
| Cc1cc(=O)oc2cc(NC(=O)c3cc4c(cc3F)COB4O)ccc12 [Compound 172] | ≥ 80 |
| CN(C)S(=O)(=O)c1ccc(NC(=O)c2cc3c(cc2F)COB3O)cc1 [Compound 173] | ≥ 80 |
| Cc1cc(NC(=O)c2cc3c(cc2F)COB3O)n(C)n1 [Compound 175] | ≥ 80 |
| Cc1csc(NC(=O)c2cc3c(cc2F)COB3O)n1 [Compound 176] | ≥ 80 |
